Source: US20260166016A1, “GPR139 RECEPTOR AGONIST, PREPARATION METHOD THEREFOR, AND APPLICATION THEREOF” (NEUBO APPTECH CO., LTD., priority 2022, published 2026)

Experiments:
[1] = test system: LPS induced mouse depression model; experiment: LPS induced mouse depression model, Open Field Test; type: in vivo; details: gavage 2.5 mg/mL at 0.1 mL/10 g twice daily Day 1-4, test 6 hours after injection, FIGS. 6 and 7
From the text: (§1) Mice: Male Crl: CD1 (ICR) mice; 10-14 weeks old; Weight: 35-40 g; Quantity: 40 pieces
(§2) Group 1, placebo+saline group: 10 mice; divided into 2 cages, 5 mice per cage.
(§3) Group 2, placebo+lipopolysaccharide (LPS) group: 10 mice; divided into 2 cages, 5 mice per cage.
(§4) Group 3, compound NRB181+saline group: 10 mice; divided into 2 cages, 5 mice per cage.
(§5) Group 4, compound NRB181+lipopolysaccharide (LPS) group: 10 mice; divided into 2 cages, 5 mice per cage.
(§6) 21.3.1 Preparation of placebo before experiment: 0.5% CMC sodium+1% Tween80+saline. In a clean bench, 4 tubes of 40 mL placebo were prepared using pyrogen-free centrifuge tubes and ultrapure water, totaling 160 mL, ensuring the absence of endotoxins (LPS). Sterile and endotoxin free centrifuge tubes were used to divide […] of placebo into 4 mL/tube, for a total of 30 tubes, and stored at 4° C. for future use.
(§7) LPS with a purity of >98% was required 3.2 mg of LPS was accurately weighed and dissolved in 40 mL of placebo to prepare a sterile solution of 0.08 mg/mL. […]
21.3.13 On the afternoon of the Day 4 of the experiment, 6 hours after mice in Group 1 were injected with saline, an Open Field Test was conducted on each group starting from Group 1. Relevant parameters were recorded, and then the mice in each group were returned to their respective home cages.

[2] = test system: metabolic enzymes of pentobarbital sodium; experiment: LC-MS detection of pentobarbital sodium content in anesthetized mice (pilot experiment); type: in vivo, mouse; details: pentobarbital sodium content in mice by LC-MS, placebo vs compound
From the text: In addition, to determine whether compound NRB181 has an effect on the metabolic enzymes of pentobarbital sodium, we used LC-MS method to detect the pentobarbital sodium content in mice anesthetized with pentobarbital sodium under placebo and compound action in the pilot experiment.

[3] = test system: LPS induced mouse depression model; experiment: LPS induced mouse depression model, Forced Swim Test; type: in vivo; details: gavage 2.5 mg/mL at 0.1 mL/10 g twice daily Day 1-4, test 24 hours after injection, FIG. 5
From the text: as §1, §2, §3, §4, §5, §6
(§8) LPS with a purity of >98% was required 3.2 mg of LPS was accurately weighed and dissolved in 40 mL of placebo to prepare a sterile solution of 0.08 mg/mL. After thorough mixing, the solution was divided into sterile and endotoxin-free centrifuge tubes, 4 mL per tube. […]
21.3.15 On the Day 5 of experiment, 24 hours after mice of Group 1 were injected with saline the day before, a Forced Swim Test was conducted on each group of mice starting from Group 1, and the immobility time of each mouse was recorded.

[4] = test system: LPS induced mouse depression model; experiment: LPS induced mouse depression model, body weight; type: in vivo; details: male CD1 (ICR) mice; gavage 2.5 mg/mL at 0.1 mL/10 g twice daily Day 1-4; LPS i.p. Day 4; weighed Day 5; FIG. 4
From the text: as §1, §2, §3, §4, §5, §6, §7
21.3.4 On the first day of the experiment at 8:00 am, four groups of mice were randomly divided into groups, and the weight of each mouse was recorded before being placed back in their respective cages. […]
21.3.14 On the Day 5 of the experiment at 9:00 am, each group of mice was weighed and recorded, and then were returned to their home cages.

[5] = test system: LPS induced mouse depression model; experiment: LPS induced mouse depression model, corticosterone level; type: in vivo; details: gavage 2.5 mg/mL at 0.1 mL/10 g twice daily Day 1-4, blood collected Day 5, FIG. 8
From the text: as §1, §2, §3, §4, §5, §6
as §8, with “tube. The LPS solution needed for the next day was stored at 4° C. (3 tubes), while the rest was frozen at −20° C. for future use.” for “tube.”

SMILES: C[C@H](NC(=O)CNC(=O)c1cc(Cl)ccn1)c1c(F)cccc1F [NRB181]
- activity of mice in the Open Field Test (number of line crossings, total distance traveled) [1]: significantly increased the activity
- effect on the metabolic enzymes of pentobarbital sodium [2]: no effect
- despair time (immobility time) in the Forced Swim Test [3]: significantly reduce the despair time
- weight loss (body weight changes) [4]: significantly alleviate weight loss
- expression level of corticosterone [5]: significantly reduce the expression level of corticosterone
